Data reported in patent US8975417B2, “Pyrazolopyrrolidine derivatives and their use in the treatment of disease” (Novartis AG, priority 2013, dated 2015).

Experiments:
[1] = target: nuclear BRD4-NUT foci in HCC2494 NUT midline carcinoma cells (Homo sapiens (Human), UniProt O60885+Q86Y26); experiment: Nut-foci formation assay; type: cell-based; conditions: 24 hours, read-out: HCS Brd4-NUT IC50
Protocol: HCC2494 NUT midline carcinoma cells (expressing BRD4-NUT-fusion) were obtained from the University of Texas Southwestern and cultured in RPMI-1640 medium containing 10% Foetal Calf Serum at 37° C. in a humidified 5% CO2 incubator.
Compound-mediated inhibition of BRD4 activity was monitored by quantification of the number and intensity of nuclear BRD4-NUT foci using automated immunofluorescence microscopy. Briefly, 5000 cells in 20 μL fresh medium were seeded into Poly-D-Lysine-precoated 384-well plates and incubated overnight at 37° C. and 5% CO2, followed by addition of 5 μl medium containing compound dilutions at 5-fold their final intended concentration. Dose-response effects were assessed by 3-fold serial dilutions of the test compound, starting at 10 μM. Following incubation of the cells for 24 hours at 37° C. and 5% CO2, the cells were fixed by incubation with 3.7% formaldehyde for 10 min, followed by immunofluorescence staining using rabbit anti-NUT (Cell Signaling Technologies, Cat#3625) as primary, and AlexaFluor488-labeled goat anti-rabbit (Invitrogen, Cat#A11008) as secondary antibody (latter complemented with 1 μg/mL Hoechst33342 as DNA dye). Assay plates were imaged using the appropriate filter sets on the Cellomics VTi automated fluorescence microscopy platform (ThermoFisher Scientific) and the population average of the number of NUT-foci per nucleus is quantified using the Cellomics Spot Detection BioApplication image analysis algorithm (ThermoFisher Scientific). The effect of a particular test compound concentration on NUT-foci number and intensity is expressed as percentage of the value obtained for cells treated with vehicle only (DMSO, 0.1% final concentration), which was set as 100. Compound concentrations leading to half-maximal (IC50) inhibition of the aforementioned readout parameters were determined using standard four parameter curve fitting.

His-Brd2(60-472) = His-Brd2(60-472) (Homo sapiens (Human), UniProt P25440); experiment: TR-FRET in-vitro binding assay for BRD2; conditions: biochemical
How it was run: (§1)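 Bromodomain protein (45 nM in its addition solution) and tetra-acetylated histone H4 peptide (AcK5/8/12/16; 60 nM in its addition solution) were incubated with compounds for 35 min at 30 °C in 50 mM HEPES pH 7.5, 50 mM NaCl, 0.005% Tween20, 0.1% BSA. Eu-anti-His6 plus streptavidin-allophycocyanin detection followed, with TR-FRET read-out.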

K-562 cells = experiment: Cell growth inhibition assay (CellTiter-Glo), K-562; type: cell-based, human; conditions: Homo sapiens, K562, read-out: K-562 TGI
How it was run: (§2)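 Compounds tested as 3-fold dilution series starting at 10 μM (DMSO 0.1% final); viability read by cellular ATP (CTG luminescence) at 37° C. Signal corrected for no-cell background and a day-0 plate, scaled −100% to 100%; four-parameter fitting gives IC50 and TGI.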

MV-4-11 cells = experiment: Cell growth inhibition assay (CellTiter-Glo), MV-4-11; type: cell-based; conditions: Homo sapiens, MV4-11, read-out: MV-4-11 TGI
How it was run: as §2

THP-1 cells = experiment: Cell growth inhibition assay (CellTiter-Glo), THP-1; type: cell-based; conditions: Homo sapiens, read-out: THP-1 TGI
How it was run: as §2

His-Brd4(44-477) = His-Brd4(44-477) (Homo sapiens (Human), UniProt O60885); experiment: TR-FRET in-vitro binding assay for BRD4; conditions: biochemical
How it was run: as §1

His-Brd3(20-477) = His-Brd3(20-477) (Homo sapiens (Human), UniProt Q15059); experiment: TR-FRET in-vitro binding assay for BRD3; conditions: biochemical
How it was run: as §1

[2] = target: His-CREBBP (1081-1197) bromodomain (Homo sapiens (Human), UniProt Q92793); experiment: AlphaScreen in-vitro binding assay for CREBBP; conditions: biochemical
How it was run: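 Ni-chelate acceptor and streptavidin donor beads (45 µg/mL each, in 50 mM HEPES pH 7.5, 150 mM NaCl, 0.02% BSA) were then added for 60 min at room temperature. IC50 came from 8-point non-linear regression.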

Sequence of His-Brd2(60-472) (P25440 60-472): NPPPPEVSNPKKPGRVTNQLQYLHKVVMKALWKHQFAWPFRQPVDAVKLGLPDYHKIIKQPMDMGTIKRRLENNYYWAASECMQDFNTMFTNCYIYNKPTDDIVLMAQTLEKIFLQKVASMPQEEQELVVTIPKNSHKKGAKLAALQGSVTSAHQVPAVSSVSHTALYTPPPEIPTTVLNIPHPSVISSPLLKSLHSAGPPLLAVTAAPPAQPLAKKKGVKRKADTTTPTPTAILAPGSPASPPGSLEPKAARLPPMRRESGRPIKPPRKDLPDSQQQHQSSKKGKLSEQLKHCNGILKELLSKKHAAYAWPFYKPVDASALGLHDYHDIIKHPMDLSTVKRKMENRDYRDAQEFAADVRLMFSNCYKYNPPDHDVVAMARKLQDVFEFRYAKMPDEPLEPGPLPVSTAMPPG
Sequence of His-CREBBP (1081-1197) bromodomain (Q92793 1081-1197): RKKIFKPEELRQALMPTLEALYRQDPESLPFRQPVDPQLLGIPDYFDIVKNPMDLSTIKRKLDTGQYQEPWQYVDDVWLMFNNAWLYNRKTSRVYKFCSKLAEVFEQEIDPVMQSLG
Sequence of His-Brd3(20-477) (Q15059 20-477): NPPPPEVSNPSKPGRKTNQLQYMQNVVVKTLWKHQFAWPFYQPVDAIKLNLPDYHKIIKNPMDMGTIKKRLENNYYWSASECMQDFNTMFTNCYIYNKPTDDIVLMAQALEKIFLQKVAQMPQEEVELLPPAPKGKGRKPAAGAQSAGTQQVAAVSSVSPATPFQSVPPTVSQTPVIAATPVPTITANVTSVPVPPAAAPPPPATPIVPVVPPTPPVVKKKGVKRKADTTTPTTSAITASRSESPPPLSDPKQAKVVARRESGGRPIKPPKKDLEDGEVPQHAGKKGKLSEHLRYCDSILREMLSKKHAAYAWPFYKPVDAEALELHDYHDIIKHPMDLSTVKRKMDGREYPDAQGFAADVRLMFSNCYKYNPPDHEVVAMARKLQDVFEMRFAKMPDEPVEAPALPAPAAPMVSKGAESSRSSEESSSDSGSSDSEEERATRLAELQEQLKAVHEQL

Cc1cc(N2C(=O)c3n[nH]cc3C2c2ccc(Cl)cc2)cn(C)c1=O (stereo not drawn) [Example 26, 4-(4-chlorophenyl)-5-(1,5-dimethyl-6-oxo-1,6-dihydropyridin-3-yl)-4,5-dihydropyrrolo[3,4-c]pyrazol-6(2H)-one]
IC50 [1]: 698 nM
IC50 (His-Brd2(60-472)): 210 nM
IC (total growth inhibition) (K-562 cells): > 10 µM
IC (total growth inhibition) (MV-4-11 cells): 0.317 µM
IC (total growth inhibition) (THP-1 cells): 0.772 µM
IC50 (His-Brd4(44-477)): 150 nM

Cc1nn(C2CNC2)c2c1C(c1ccc(Cl)cc1)N(c1cc(C)c(=O)n(C)c1)C2=O (stereo not drawn) [Example 138, 1-(azetidin-3-yl)-4-(4-chlorophenyl)-5-(1,5-dimethyl-6-oxo-1,6-dihydropyridin-3-yl)-3-methyl-4,5-dihydropyrrolo[3,4-c]pyrazol-6(1H)-one]
IC50 [1]: 845 nM
IC50 (His-Brd3(20-477)): 240 nM
IC (total growth inhibition) (K-562 cells): > 10 µM
IC (total growth inhibition) (MV-4-11 cells): 0.353 µM
IC (total growth inhibition) (THP-1 cells): 1.51 µM
IC50 (His-Brd4(44-477)): 290 nM

Cc1cc(N2C(=O)c3nn(C4COC4)c(C)c3C2c2ccc(Cl)cc2)cn(C)c1=O (stereo not drawn) [Example 134, 4-(4-chlorophenyl)-5-(1,5-dimethyl-6-oxo-1,6-dihydropyridin-3-yl)-3-methyl-2-(oxetan-3-yl)-4,5-dihydropyrrolo[3,4-c]pyrazol-6(2H)-one]
IC50 [1]: 92.2 nM
IC50 (His-Brd2(60-472)): 190 nM
IC50 (His-Brd3(20-477)): 130 nM
IC (total growth inhibition) (K-562 cells): > 10 µM
IC (total growth inhibition) (MV-4-11 cells): 0.187 µM
IC (total growth inhibition) (THP-1 cells): 0.291 µM
IC50 (His-Brd4(44-477)): 160 nM

Cc1cc(N2C(=O)c3c(c(CO)nn3C3CC3)C2c2ccc(Cl)cc2)cn(C)c1=O (stereo not drawn) [Example 133, 4-(4-chlorophenyl)-1-cyclopropyl-5-(1,5-dimethyl-6-oxo-1,6-dihydropyridin-3-yl)-3-(hydroxymethyl)-4,5-dihydropyrrolo[3,4-c]pyrazol-6(1H)-one]
IC50 [1]: 64.7 nM
IC50 (His-Brd3(20-477)): 80 nM
IC (total growth inhibition) (K-562 cells): > 10 µM
IC (total growth inhibition) (MV-4-11 cells): 0.102 µM
IC (total growth inhibition) (THP-1 cells): 0.327 µM
IC50 (His-Brd4(44-477)): 79 nM

Cc1nn(C2CC2)c2c1C(c1cccc(OC(F)(F)F)c1)N(c1cc(C)c(=O)n(C)c1)C2=O (stereo not drawn) [Example 91, 1-cyclopropyl-5-(1,5-dimethyl-6-oxo-1,6-dihydropyridin-3-yl)-3-methyl-4-(3-(trifluoromethoxy)phenyl)-4,5-dihydropyrrolo[3,4-c]pyrazol-6(1H)-one]
IC50 [1]: 736 nM
IC (total growth inhibition) (K-562 cells): > 10 µM
IC (total growth inhibition) (MV-4-11 cells): 0.978 µM
IC (total growth inhibition) (THP-1 cells): 1.44 µM

Cc1nn(C2CC2)c2c1[C@H](c1ccc(Cl)cc1)N(c1cc(C)c3nnc(C)n3n1)C2=O [Example 123, (S)-4-(4-chlorophenyl)-1-cyclopropyl-5-(3,8-dimethyl-[1,2,4]triazolo[4,3-b]pyridazin-6-yl)-3-methyl-4,5-dihydropyrrolo[3,4-c]pyrazol-6(1H)-one]
IC50 [1]: 8910 nM
IC (total growth inhibition) (K-562 cells): > 10 µM
IC (total growth inhibition) (MV-4-11 cells): 5.81 µM
IC (total growth inhibition) (THP-1 cells): > 10 µM
IC50 (His-Brd4(44-477)): 14000 nM

CCc1nn(CCOC)c2c1C(c1ccc(Cl)cc1)N(c1cc(C)c(=O)n(C)c1)C2=O (stereo not drawn) [Example 86, 4-(4-chlorophenyl)-5-(1,5-dimethyl-6-oxo-1,6-dihydropyridin-3-yl)-3-ethyl-1-(2-methoxyethyl)-4,5-dihydropyrrolo[3,4-c]pyrazol-6(1H)-one]
IC50 [1]: 38.4 nM
IC (total growth inhibition) (K-562 cells): > 10 µM
IC (total growth inhibition) (MV-4-11 cells): 0.0548 µM
IC (total growth inhibition) (THP-1 cells): 0.123 µM

CCn1nc2c(c1C)C(c1ccc(Cl)cc1F)N(c1cc(C)c3nnc(C)n3c1)C2=O (stereo not drawn) [Example 186, 4-(4-chloro-2-fluorophenyl)-5-(3,8-dimethyl-[1,2,4]triazolo[4,3-a]pyridin-6-yl)-2-ethyl-3-methyl-4,5-dihydropyrrolo[3,4-c]pyrazol-6(2H)-one]
IC50 (His-Brd2(60-472)): 140 nM
IC50 (His-Brd3(20-477)): 61 nM
IC (total growth inhibition) (K-562 cells): > 10 µM
IC (total growth inhibition) (MV-4-11 cells): 0.0882 µM
IC (total growth inhibition) (THP-1 cells): 0.145 µM
IC50 (His-Brd4(44-477)): 69 nM
IC50 [2]: 6100 nM

CCn1nc2c(c1C)C(c1ccc(Cl)cc1F)N(c1cc(C)c(=O)n(C)c1)C2=O (stereo not drawn) [Example 171, 4-(4-chloro-2-fluorophenyl)-5-(1,5-dimethyl-6-oxo-1,6-dihydropyridin-3-yl)-2-ethyl-3-methyl-4,5-dihydropyrrolo[3,4-c]pyrazol-6(2H)-one]
IC50 (His-Brd2(60-472)): 140 nM
IC50 (His-Brd3(20-477)): 93 nM
IC (total growth inhibition) (K-562 cells): > 10 µM
IC (total growth inhibition) (MV-4-11 cells): 0.174 µM
IC (total growth inhibition) (THP-1 cells): 0.297 µM
IC50 (His-Brd4(44-477)): 140 nM
IC50 [2]: 1500 nM

Cc1cc(N2C(=O)c3c(c(CO)nn3C3CC3)[C@H]2c2ccc(Cl)cc2)cn2c(C)nnc12 [Example 166, (R)-4-(4-chlorophenol)-1-cyclopropyl-5-(3,8-dimethyl-[1,2,4]triazolo[4,3-a]pyridin-6-yl)-3-(hydroxymethyl)-4,5-dihydropyrrolo[3,4-c]pyrazol-6(1H)-one]
IC50 (His-Brd2(60-472)): 16 nM
IC50 (His-Brd3(20-477)): 13 nM
IC (total growth inhibition) (K-562 cells): > 10 µM
IC (total growth inhibition) (MV-4-11 cells): 0.0262 µM
IC (total growth inhibition) (THP-1 cells): 0.0539 µM
IC50 (His-Brd4(44-477)): < 11 nM
IC50 [2]: 14000 nM

COc1ncc(-n2nc3c(c2C(C)C)[C@@H](c2ccc(Cl)cc2)N(c2cc(C)c4onc(C)c4c2)C3=O)c(OC)n1 [Example 62, (R)-4-(4-chlorophenyl)-2-(2,4-dimethoxypyrimidin-5-yl)-5-(3,7-dimethylbenzo[d]-isoxazol-5-yl)-3-isopropyl-4,5-dihydropyrrolo[3,4-c]pyrazol-6(2H)-one]
IC50 (His-Brd2(60-472)): 60 nM
IC50 (His-Brd3(20-477)): 72 nM
IC (total growth inhibition) (K-562 cells): > 10 µM
IC (total growth inhibition) (MV-4-11 cells): 0.105 µM
IC (total growth inhibition) (THP-1 cells): 0.174 µM
IC50 (His-Brd4(44-477)): 67 nM
IC50 [2]: 1700 nM

Cc1nn(C2CC2)c2c1C(c1ccc(Cl)cc1F)N(c1cc(C)c(=O)n(C)c1)C2=O (stereo not drawn) [Example 179, 4-(4-chloro-2-fluorophenyl)-1-cyclopropyl-5-(1,5-dimethyl-6-oxo-1,6-dihydropyridin-3-yl)-3-methyl-4,5-dihydropyrrolo[3,4-c]pyrazol-6(1H)-one]
IC50 (His-Brd2(60-472)): 92 nM
IC50 (His-Brd3(20-477)): 90 nM
IC (total growth inhibition) (K-562 cells): > 10 µM
IC (total growth inhibition) (MV-4-11 cells): 0.12 µM
IC (total growth inhibition) (THP-1 cells): 0.272 µM
IC50 (His-Brd4(44-477)): 95 nM
IC50 [2]: 3900 nM

Cc1n[nH]c2c1C(c1ccc(F)cc1F)N(c1cc(C)c3nnc(C)n3c1)C2=O (stereo not drawn) [Example 172, 4-(2,4-difluorophenyl)-5-(3,8-dimethyl-[1,2,4]triazolo[4,3-a]pyridin-6-yl)-3-methyl-4,5-dihydropyrrolo[3,4-c]pyrazol-6(2H)-one]
IC50 (His-Brd2(60-472)): 220 nM
IC50 (His-Brd3(20-477)): 110 nM
IC (total growth inhibition) (K-562 cells): > 10 µM
IC (total growth inhibition) (MV-4-11 cells): 0.323 µM
IC (total growth inhibition) (THP-1 cells): 0.782 µM
IC50 (His-Brd4(44-477)): 97 nM
IC50 [2]: > 37000 nM

Cc1nn(C2CC2)c2c1C(c1ccc(F)cc1F)N(c1cc(C)c3nnc(C)n3c1)C2=O (stereo not drawn) [Example 176, 1-cyclopropyl-4-(2,4-difluorophenyl)-5-(3,8-dimethyl-[1,2,4]triazolo[4,3-a]pyridin-6-yl)-3-methyl-4,5-dihydropyrrolo[3,4-c]pyrazol-6(1H)-one]
IC50 (His-Brd2(60-472)): 120 nM
IC50 (His-Brd3(20-477)): 90 nM
IC (total growth inhibition) (K-562 cells): > 10 µM
IC (total growth inhibition) (MV-4-11 cells): 0.0631 µM
IC (total growth inhibition) (THP-1 cells): 0.106 µM
IC50 (His-Brd4(44-477)): 100 nM
IC50 [2]: > 37000 nM
